Results: the kinase profiling compilation of Christmann-Franck et al. (2016)

Key:
Assay in all cases: KINOMEscan competition binding
Settings in all cases: compound 10.0 µM
PRKCE (human) = PRKCE (human) (UniProt Q02156)
PAK3 (human) = PAK3 (human) (UniProt O75914)
ADCK4 (human) = ADCK4 (human) (UniProt Q96D53)
MYO3A (human) = MYO3A (human) (UniProt Q8NEV4)
RPS6KA6 KD2 (human) = RPS6KA6 KD2 (human) (UniProt Q9UK32)
HIPK4 (human) = HIPK4 (human) (UniProt Q8NE63)
DAPK1 (human) = DAPK1 (human) (UniProt P53355)
TAOK1 (human) = TAOK1 (human) (UniProt Q7L7X3)
HIPK2 (human) = HIPK2 (human) (UniProt Q9H2X6)
GRK4 (human) = GRK4 (human) (UniProt P32298)
MAP3K1 (human) = MAP3K1 (human) (UniProt Q13233)
TRPM6 (human) = TRPM6 (human) (UniProt Q9BX84)
DCLK2 (human) = DCLK2 (human) (UniProt Q8N568)
MAPK4 (human) = MAPK4 (human) (UniProt P31152)
ICK (human) = ICK (human) (UniProt Q9UPZ9)
SRPK2 (human) = SRPK2 (human) (UniProt P78362)
CSNK2A1 (human) = CSNK2A1 (human) (UniProt P68400)
Sequence of CSNK2A1 (human) (P68400 whole entry, looked up): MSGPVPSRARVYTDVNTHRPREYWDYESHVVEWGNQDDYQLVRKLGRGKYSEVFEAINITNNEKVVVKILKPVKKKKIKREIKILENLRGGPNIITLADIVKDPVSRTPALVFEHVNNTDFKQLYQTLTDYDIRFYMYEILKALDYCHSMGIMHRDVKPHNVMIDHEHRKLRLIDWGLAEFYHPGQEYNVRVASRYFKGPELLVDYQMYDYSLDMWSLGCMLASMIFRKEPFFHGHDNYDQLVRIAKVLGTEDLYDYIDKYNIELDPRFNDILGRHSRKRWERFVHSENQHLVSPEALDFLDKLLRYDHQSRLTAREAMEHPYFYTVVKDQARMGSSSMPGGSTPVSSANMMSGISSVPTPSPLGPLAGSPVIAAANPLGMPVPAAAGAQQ

MAP3K15 (human) = MAP3K15 (human) (UniProt Q6ZN16)
Sequence of MAP3K15 (human) (Q6ZN16 whole entry, looked up): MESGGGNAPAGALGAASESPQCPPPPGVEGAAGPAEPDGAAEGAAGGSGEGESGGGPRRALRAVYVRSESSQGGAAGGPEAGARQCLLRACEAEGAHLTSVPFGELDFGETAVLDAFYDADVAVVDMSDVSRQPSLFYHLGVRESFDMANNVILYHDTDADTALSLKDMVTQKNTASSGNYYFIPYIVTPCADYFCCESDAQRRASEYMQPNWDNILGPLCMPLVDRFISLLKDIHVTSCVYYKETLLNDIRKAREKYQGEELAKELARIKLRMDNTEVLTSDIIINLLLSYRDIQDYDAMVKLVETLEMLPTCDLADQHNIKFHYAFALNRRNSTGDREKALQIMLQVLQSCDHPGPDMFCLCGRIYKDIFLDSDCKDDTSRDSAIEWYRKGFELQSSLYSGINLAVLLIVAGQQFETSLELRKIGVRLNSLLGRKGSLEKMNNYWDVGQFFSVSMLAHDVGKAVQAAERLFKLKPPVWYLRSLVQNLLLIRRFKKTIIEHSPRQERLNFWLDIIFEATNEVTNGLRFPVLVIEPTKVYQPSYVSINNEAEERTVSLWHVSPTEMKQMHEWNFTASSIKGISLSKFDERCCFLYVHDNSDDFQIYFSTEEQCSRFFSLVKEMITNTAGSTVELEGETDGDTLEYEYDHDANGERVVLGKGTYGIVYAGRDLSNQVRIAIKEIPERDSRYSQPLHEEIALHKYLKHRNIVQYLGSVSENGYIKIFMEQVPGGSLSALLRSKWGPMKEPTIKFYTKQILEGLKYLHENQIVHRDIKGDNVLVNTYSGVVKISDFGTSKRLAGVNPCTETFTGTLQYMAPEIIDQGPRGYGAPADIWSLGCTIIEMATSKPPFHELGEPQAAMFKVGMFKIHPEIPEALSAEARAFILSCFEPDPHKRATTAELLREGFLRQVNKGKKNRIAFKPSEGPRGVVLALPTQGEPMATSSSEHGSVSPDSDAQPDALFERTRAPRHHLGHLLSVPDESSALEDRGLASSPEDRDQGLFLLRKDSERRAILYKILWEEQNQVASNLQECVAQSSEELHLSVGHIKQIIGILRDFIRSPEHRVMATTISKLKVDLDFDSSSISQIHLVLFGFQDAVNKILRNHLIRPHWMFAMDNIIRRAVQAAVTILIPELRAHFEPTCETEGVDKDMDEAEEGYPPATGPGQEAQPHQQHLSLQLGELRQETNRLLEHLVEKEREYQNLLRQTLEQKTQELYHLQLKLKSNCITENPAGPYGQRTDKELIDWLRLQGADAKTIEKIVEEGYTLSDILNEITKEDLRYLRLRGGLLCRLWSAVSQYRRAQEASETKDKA

MAST1 (human) = MAST1 (human) (UniProt Q9Y2H9)
DCLK3 (human) = DCLK3 (human) (UniProt Q9C098)
EIF2AK1 (human) = EIF2AK1 (human) (UniProt Q9BQI3)
Sequence of EIF2AK1 (human) (Q9BQI3 whole entry, looked up): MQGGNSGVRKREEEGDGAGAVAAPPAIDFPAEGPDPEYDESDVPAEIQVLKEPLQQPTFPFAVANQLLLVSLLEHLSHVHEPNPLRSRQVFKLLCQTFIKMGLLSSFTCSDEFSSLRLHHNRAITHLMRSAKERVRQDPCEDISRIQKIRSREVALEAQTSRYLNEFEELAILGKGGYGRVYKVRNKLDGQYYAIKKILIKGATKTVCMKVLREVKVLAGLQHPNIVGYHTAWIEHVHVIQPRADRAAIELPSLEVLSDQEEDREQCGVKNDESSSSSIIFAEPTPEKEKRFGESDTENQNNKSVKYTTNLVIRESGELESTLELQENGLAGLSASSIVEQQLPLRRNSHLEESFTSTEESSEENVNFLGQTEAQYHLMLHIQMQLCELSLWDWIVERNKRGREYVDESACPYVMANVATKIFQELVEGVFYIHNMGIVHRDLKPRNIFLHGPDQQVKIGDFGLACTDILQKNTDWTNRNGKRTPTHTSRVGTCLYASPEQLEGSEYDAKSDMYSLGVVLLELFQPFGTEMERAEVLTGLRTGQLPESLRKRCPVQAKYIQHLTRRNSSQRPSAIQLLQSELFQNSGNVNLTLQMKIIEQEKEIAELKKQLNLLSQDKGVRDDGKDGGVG

PAK2 (human) = PAK2 (human) (UniProt Q13177)
CSNK1A1L (human) = CSNK1A1L (human) (UniProt Q8N752)
MAP2K4 (human) = MAP2K4 (human) (UniProt P45985)
Sequence of MAP2K4 (human) (P45985 whole entry, looked up): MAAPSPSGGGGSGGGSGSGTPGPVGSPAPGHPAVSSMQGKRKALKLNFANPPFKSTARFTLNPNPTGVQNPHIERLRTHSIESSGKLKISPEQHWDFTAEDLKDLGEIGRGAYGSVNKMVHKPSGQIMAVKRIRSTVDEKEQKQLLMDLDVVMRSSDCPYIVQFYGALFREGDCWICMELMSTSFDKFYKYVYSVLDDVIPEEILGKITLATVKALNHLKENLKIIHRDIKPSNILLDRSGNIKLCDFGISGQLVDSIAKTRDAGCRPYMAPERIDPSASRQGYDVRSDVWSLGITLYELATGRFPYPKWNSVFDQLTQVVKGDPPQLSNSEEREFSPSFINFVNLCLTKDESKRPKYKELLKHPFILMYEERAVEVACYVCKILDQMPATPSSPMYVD

CDK17 (human) = CDK17 (human) (UniProt Q00537)
PIK3CD (human) = PIK3CD (human) (UniProt O00329)
CDKL2 (human) = CDKL2 (human) (UniProt Q92772)
Sequence of CDKL2 (human) (Q92772 whole entry, looked up): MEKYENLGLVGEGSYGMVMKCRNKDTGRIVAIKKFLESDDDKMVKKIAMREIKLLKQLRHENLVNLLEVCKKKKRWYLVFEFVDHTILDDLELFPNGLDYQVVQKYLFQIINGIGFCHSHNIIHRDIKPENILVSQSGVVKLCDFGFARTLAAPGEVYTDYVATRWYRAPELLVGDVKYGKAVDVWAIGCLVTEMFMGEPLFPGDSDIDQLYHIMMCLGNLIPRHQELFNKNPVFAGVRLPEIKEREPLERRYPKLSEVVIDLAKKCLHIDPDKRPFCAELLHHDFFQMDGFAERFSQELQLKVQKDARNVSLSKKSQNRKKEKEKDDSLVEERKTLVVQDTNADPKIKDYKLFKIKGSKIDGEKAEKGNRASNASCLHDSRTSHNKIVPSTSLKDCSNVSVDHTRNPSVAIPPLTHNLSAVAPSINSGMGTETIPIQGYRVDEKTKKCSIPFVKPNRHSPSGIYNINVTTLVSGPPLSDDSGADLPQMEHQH

NEK5 (human) = NEK5 (human) (UniProt Q6P3R8)
Sequence of NEK5 (human) (Q6P3R8 whole entry, looked up): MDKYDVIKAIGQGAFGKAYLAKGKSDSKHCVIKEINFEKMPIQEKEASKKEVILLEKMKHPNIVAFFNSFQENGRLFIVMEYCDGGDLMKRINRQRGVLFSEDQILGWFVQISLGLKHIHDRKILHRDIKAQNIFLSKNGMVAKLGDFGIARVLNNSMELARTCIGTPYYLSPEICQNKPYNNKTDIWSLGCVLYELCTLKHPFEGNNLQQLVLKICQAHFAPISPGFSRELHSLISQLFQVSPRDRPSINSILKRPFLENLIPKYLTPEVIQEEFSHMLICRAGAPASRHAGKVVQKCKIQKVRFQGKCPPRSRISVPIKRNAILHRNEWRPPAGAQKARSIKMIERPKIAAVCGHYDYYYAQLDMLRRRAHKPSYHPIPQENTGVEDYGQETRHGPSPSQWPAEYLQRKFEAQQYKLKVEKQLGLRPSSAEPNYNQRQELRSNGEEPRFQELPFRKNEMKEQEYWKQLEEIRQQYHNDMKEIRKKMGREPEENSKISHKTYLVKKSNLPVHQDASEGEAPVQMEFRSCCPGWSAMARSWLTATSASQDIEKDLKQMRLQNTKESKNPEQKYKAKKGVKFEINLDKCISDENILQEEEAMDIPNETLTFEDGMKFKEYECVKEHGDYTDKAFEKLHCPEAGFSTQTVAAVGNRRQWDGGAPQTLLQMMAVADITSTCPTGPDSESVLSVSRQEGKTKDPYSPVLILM

TAOK2 (human) = TAOK2 (human) (UniProt Q9UL54)
NEK9 (human) = NEK9 (human) (UniProt Q8TD19)
Sequence of NEK9 (human) (Q8TD19 whole entry, looked up): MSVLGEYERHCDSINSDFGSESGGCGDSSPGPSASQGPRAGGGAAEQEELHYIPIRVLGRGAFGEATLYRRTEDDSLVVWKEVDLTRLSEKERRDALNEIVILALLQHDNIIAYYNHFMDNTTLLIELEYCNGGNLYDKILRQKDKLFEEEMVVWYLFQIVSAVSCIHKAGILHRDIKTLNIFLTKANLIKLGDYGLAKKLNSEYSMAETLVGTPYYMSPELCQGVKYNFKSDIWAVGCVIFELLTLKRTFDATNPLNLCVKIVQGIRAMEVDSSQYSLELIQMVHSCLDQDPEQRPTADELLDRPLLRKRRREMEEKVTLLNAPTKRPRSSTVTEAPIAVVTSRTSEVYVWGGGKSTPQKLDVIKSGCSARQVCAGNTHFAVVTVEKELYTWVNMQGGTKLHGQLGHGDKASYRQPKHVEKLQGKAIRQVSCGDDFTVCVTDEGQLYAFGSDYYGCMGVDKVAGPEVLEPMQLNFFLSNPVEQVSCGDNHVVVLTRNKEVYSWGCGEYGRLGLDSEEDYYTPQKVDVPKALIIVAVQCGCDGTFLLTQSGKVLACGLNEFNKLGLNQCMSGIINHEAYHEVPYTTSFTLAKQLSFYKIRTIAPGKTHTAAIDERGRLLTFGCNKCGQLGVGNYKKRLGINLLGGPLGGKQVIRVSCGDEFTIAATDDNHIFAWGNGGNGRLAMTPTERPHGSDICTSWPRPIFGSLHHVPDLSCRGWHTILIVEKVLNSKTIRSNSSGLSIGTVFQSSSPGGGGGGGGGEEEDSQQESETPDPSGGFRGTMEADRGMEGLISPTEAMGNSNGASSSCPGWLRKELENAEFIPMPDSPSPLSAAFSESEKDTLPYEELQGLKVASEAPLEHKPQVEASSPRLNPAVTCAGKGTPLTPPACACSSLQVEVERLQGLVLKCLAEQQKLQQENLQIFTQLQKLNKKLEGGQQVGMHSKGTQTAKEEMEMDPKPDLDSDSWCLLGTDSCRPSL

CAMK2B (human) = CAMK2B (human) (UniProt Q13554)
PIM2 (human) = PIM2 (human) (UniProt Q9P1W9)
MAPK7 (human) = MAPK7 (human) (UniProt Q13164)
LYN (human) = LYN (human) (UniProt P07948)
MARK4 (human) = MARK4 (human) (UniProt Q96L34)
CHEK1 (human) = CHEK1 (human) (UniProt O14757)
EPHB1 (human) = EPHB1 (human) (UniProt P54762)
PIP4K2C (human) = PIP4K2C (human) (UniProt Q8TBX8)
EPHA3 (human) = EPHA3 (human) (UniProt P29320)
EPHB3 (human) = EPHB3 (human) (UniProt P54753)

Compound | kinase still bound, per cent of control (PRKCE (human)) [%] | kinase still bound, per cent of control (PAK3 (human)) [%] | kinase still bound, per cent of control (ADCK4 (human)) [%] | kinase still bound, per cent of control (MYO3A (human)) [%] | kinase still bound, per cent of control (RPS6KA6 KD2 (human)) [%] | kinase still bound, per cent of control (HIPK4 (human)) [%] | kinase still bound, per cent of control (DAPK1 (human)) [%] | kinase still bound, per cent of control (TAOK1 (human)) [%] | kinase still bound, per cent of control (HIPK2 (human)) [%] | kinase still bound, per cent of control (GRK4 (human)) [%] | kinase still bound, per cent of control (MAP3K1 (human)) [%] | kinase still bound, per cent of control (TRPM6 (human)) [%] | kinase still bound, per cent of control (DCLK2 (human)) [%] | kinase still bound, per cent of control (MAPK4 (human)) [%] | kinase still bound, per cent of control (ICK (human)) [%] | kinase still bound, per cent of control (SRPK2 (human)) [%] | kinase still bound, per cent of control (CSNK2A1 (human)) [%] | kinase still bound, per cent of control (MAP3K15 (human)) [%] | kinase still bound, per cent of control (MAST1 (human)) [%] | kinase still bound, per cent of control (DCLK3 (human)) [%] | further results
O=c1[nH]c2ccccc2n1C1CCN(Cc2ccc(-c3nc4cc5[nH]cnc5cc4nc3-c3ccccc3)cc2)CC1 | 100 | 72 | 100 | 100 | 100 | 72 | 100 | 91 | 88 | 100 | 80 | 87 | 92 | 100 | 91 | 85 | 96 | 100 | 100 | 91 | kinase still bound, per cent of control (EIF2AK1 (human)): 87%; kinase still bound, per cent of control (PAK2 (human)): 74%; kinase still bound, per cent of control (CSNK1A1L (human)): 80%; kinase still bound, per cent of control (MAP2K4 (human)): 94%; kinase still bound, per cent of control (CDK17 (human)): 100%; kinase still bound, per cent of control (PIK3CD (human)): 51%; kinase still bound, per cent of control (CDKL2 (human)): 77%; kinase still bound, per cent of control (NEK5 (human)): 97%; kinase still bound, per cent of control (TAOK2 (human)): 85%; kinase still bound, per cent of control (NEK9 (human)): 88%; kinase still bound, per cent of control (CAMK2B (human)): 86%; kinase still bound, per cent of control (PIM2 (human)): 91%; kinase still bound, per cent of control (MAPK7 (human)): 100%; kinase still bound, per cent of control (LYN (human)): 72%; kinase still bound, per cent of control (MARK4 (human)): 99%; kinase still bound, per cent of control (CHEK1 (human)): 100%; kinase still bound, per cent of control (EPHB1 (human)): 100%; kinase still bound, per cent of control (PIP4K2C (human)): 83%; kinase still bound, per cent of control (EPHA3 (human)): 82%; kinase still bound, per cent of control (EPHB3 (human)): 100%
CNC(=O)Nc1ccc(-c2nc(N3CC4CCC(C3)O4)c3cnn(C4CCC5(CC4)OCCO5)c3n2)cc1 | 100 | 99 | 100 | 52 | 84 | 100 | 12 | 100 | 100 | 100 | 58 | 100 | 97 | 100 | 87 | 90 | 80 | 100 | 95 | 100 | kinase still bound, per cent of control (EIF2AK1 (human)): 100%; kinase still bound, per cent of control (PAK2 (human)): 99%; kinase still bound, per cent of control (CSNK1A1L (human)): 100%; kinase still bound, per cent of control (MAP2K4 (human)): 90%; kinase still bound, per cent of control (CDK17 (human)): 100%; kinase still bound, per cent of control (PIK3CD (human)): 5.7%; kinase still bound, per cent of control (CDKL2 (human)): 100%; kinase still bound, per cent of control (NEK5 (human)): 81%; kinase still bound, per cent of control (TAOK2 (human)): 100%; kinase still bound, per cent of control (NEK9 (human)): 100%; kinase still bound, per cent of control (CAMK2B (human)): 100%; kinase still bound, per cent of control (PIM2 (human)): 74%; kinase still bound, per cent of control (MAPK7 (human)): 100%; kinase still bound, per cent of control (LYN (human)): 85%; kinase still bound, per cent of control (MARK4 (human)): 94%; kinase still bound, per cent of control (CHEK1 (human)): 100%; kinase still bound, per cent of control (EPHB1 (human)): 90%; kinase still bound, per cent of control (PIP4K2C (human)): 100%; kinase still bound, per cent of control (EPHA3 (human)): 100%; kinase still bound, per cent of control (EPHB3 (human)): 92%
